From US20220378721A1, “PROTEIN KINASE INHIBITORS AND USE THEREOF FOR TREATMENT OF NEURODEGENERATIVE DISEASES” (Xavier University of Louisiana, priority 2019, published 2022)
Like-named read-outs stand apart in the source and are kept apart here.

Key:
CK1δ = CK1δ (Homo sapiens, UniProt P48730); assay: Casein kinase 1δ inhibition assay, Z'-LYTE FRET based (ThermoFisher SelectScreen); format: biochemical; conditions: for % Inhibition CK1δ: 10 μM concentration, high-throughput screening
Experimental: Casein kinase 1δ Inhibition Assay: An initial high-throughput assay of the 28 commercially purchased compounds and 22 synthesized compounds were conducted at a 10 μM concentration at the ThermoFisher Select Screen facility. […] FIG. 1 sets forth their chemical structures.
These compounds were then subjected to dose response curve determination studies with the same FRET based assays at ThermoFisher Scientific. The IC50 values, defined as the concentration of the compound required to […] by 50%, of the some of the compounds from the screening were measured (Table 2).
(§1) The synthesized molecules from FIG. 5 were then analyzed for the inhibition of CK1δ and CK1ε, using in-vitro kinase inhibition assay. The in-vitro kinase inhibition assays were conducted at the ThermoPisher Select Screen Biochemical Kinase Profiling Service. It is a Z′-LYTE biochemical FRET based fluorescence assay with a coupled enzyme format that has differential sensitivity to phosphorylated and non-phosphorylated peptides upon proteolytic cleavage. An initial high-throughput in-vitro screening assay at a concentration of 10 μM for all of the compounds in FIG. 5.
(§2) Table 4 sets forth the IC50 values of inhibition of CK1δ and CK1ε by some of the compounds from FIG. 5.

CK1ε = CK1ε (Homo sapiens, UniProt P49674); assay: In-vitro kinase inhibition assay, Z'-LYTE FRET based (ThermoFisher SelectScreen); format: biochemical; conditions: for % Inhibition CK1ε: 10 μM concentration, high-throughput screening; for IC50: 10-point titration, 3-fold dilution from 25 μM (Table 4)
Experimental: as §1, §2

[1] = test system: tau phosphorylation at Ser202 in HeLa cells; assay: Inhibition of tau phosphorylation at serine 202 in HeLa cells expressing full-length Tau; format: cell-based; conditions: HeLa cells transfected with full length tau, 10 μM compound; for inhibition of tau phosphorylation of Ser202: pTau/total Tau
Experimental: FIG. 3A and FIG. 3B show inhibition of Tau phosphorylation by CK1δ inhibitors in HeLa cells. HeLa cervical cancer cells ectopically expressing full-length Tau protein were treated with 10 μM of the indicated compounds. Samples were prepared in triplicate. […] Actin was used as a loading control only and was not used in any later calculations. […] The Y axis reflects the average change in pTau levels divided by total Tau levels for the triplicate experiments for each compound. For normalization purposes, the vehicle control was set to 1.0 and all other values were adjusted accordingly.
For a CK1δ inhibitor to be considered a potential therapeutic for AD, the compound should be able to inhibit the phosphorylation of tau at the specific residues that are known to be phosphorylated by CK1δ. It has been shown that tau phosphorylation at Ser202/Ser205 and Ser396/Ser404 by CK1δ is not dependent on the priming by other protein kinases. Additionally, these phosphorylation sites are among those sites (Ser199, Ser 202, Ser231, Thr205, Ser396 and Ser404) that regulate the microtubule stabilizing function. Based on these evidences, Ser202 was chosen as the representative tan phosphorylation site of this study to understand the efficacy of our CK1δ inhibitors in inhibiting tau phosphorylation.
Inhibition of Tau Phosphorylation. To confirm biological relevance, the compounds identified by the FRET screens as potential CK1δ inhibitors were tested in an in vitro assay for their ability to inhibit the phosphorylation of tau at serine 202, a known target of CK1δ. LH 846, a known inhibitor of CK1δ was used as the positive control. […] In in-vitro tau phosphorylation assay in HeLa cells that were transfected with full length tau, the CK1δ inhibitors indeed lowered the tau phosphorylation levels at Ser202 by 20%-56%. Compounds 8 and 9 inhibited tau phosphorylation of Ser202 by 56% and 55%, respectively when added to HeLa cells that were transfected with and therefore overexpressed tan protein (FIG. 3).

CSNK1D (CK1δ) = CSNK1D (CK1δ) (Homo sapiens, UniProt P48730); assay: 100 kinase panel assay; format: biochemical
Text: (§3) Compound 2 (from FIG. 1) was screened against a panel of 100 kinases to understand the specificity.

PIM1 = PIM1 (Homo sapiens, UniProt P11309); assay: 100 kinase panel assay; format: biochemical
Text: as §3

PIM3 = PIM3 (Homo sapiens, UniProt Q86V86); assay: 100 kinase panel assay; format: biochemical
Text: as §3

[2] = 10-point titration, 3-fold dilution from 25 μM (Table 4), read-out: IC50 values of inhibition of CK1δ
[3] = dose response, FRET based assay (Table 2), read-out: CK1δ (IC50 μM)
[4] = 10-point titration, 3-fold dilution from 25 μM (Table 4)

Sequence of CK1ε (P49674 whole entry): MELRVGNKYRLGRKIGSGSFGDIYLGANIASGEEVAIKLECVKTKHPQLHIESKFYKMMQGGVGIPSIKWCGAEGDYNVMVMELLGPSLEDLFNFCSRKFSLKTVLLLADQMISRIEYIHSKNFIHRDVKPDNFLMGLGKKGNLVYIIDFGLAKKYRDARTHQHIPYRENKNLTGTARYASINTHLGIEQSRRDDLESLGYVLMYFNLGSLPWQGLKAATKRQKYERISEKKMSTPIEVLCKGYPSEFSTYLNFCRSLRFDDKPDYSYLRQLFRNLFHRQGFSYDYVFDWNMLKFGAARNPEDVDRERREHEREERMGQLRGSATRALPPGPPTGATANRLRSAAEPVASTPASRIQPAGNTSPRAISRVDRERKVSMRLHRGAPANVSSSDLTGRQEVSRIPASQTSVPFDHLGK
Sequence of CK1δ (P48730 whole entry): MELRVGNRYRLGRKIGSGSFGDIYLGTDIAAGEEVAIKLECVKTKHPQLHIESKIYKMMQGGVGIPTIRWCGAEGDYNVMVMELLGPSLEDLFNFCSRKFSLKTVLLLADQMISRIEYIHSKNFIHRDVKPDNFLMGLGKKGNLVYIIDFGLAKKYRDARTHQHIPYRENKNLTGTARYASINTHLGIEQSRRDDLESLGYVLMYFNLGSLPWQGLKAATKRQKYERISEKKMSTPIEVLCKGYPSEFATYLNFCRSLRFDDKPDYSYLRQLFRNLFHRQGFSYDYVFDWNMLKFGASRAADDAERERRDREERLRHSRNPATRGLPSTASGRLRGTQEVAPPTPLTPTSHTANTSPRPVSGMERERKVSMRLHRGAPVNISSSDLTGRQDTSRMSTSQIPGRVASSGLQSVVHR
Sequence of CSNK1D (CK1δ) (P48730 whole entry): as above
Sequence of PIM1 (P11309 whole entry): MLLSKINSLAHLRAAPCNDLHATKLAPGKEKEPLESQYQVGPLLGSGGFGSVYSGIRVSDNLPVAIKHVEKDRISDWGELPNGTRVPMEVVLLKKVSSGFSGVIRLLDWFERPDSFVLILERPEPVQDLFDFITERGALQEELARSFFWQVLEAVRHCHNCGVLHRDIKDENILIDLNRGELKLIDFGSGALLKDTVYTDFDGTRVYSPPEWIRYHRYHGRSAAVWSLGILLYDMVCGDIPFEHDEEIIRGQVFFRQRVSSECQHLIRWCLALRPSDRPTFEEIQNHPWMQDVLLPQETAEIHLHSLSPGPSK

| Compound | IC50 (CK1δ; [3]) [µM] | % Inhibition CK1δ (CK1δ) [%] | % Inhibition CK1ε (CK1ε) [%] | further results |
| --- | --- | --- | --- | --- |
| Cc1ccc(O)c2c1C(=O)C=CC2=O [Compound 13] | 31.2 |  |  | % Inhibition CK1δ (CK1δ; 10 µM): 85%; IC50 (CK1δ; [2]): 2.41 µM; % Inhibition CK1ε (CK1ε; 10 µM): 98%; IC50 (CK1ε): 1.19 µM |
| O=C1C(Cl)=C(Cl)C(=O)c2c(O)c(Cl)cc(O)c21 [Compound 19] |  | 42 |  | IC50 (CK1δ; [2]): 9.58 µM; % Inhibition CK1ε (CK1ε; 10 µM): 88%; selectivity for CK1ε over CK1δ (CK1ε; from % inhibition at 10 μM): 2 fold |
| O=C1C(Cl)=C(Cl)C(=O)c2c(O)ccc(O)c21 [Compound 20] |  | 21 |  | IC50 values of inhibition of CK1δ (CK1δ; [4]): could not be determined; IC50 (CK1δ; [2]): > 25 µM; % Inhibition CK1ε (CK1ε; 10 µM): 84%; IC50 (CK1ε): 7.52 µM |
| O=Cc1cc(O)c2c(c1O)C(=O)C=CC2=O [Compound 14] | 3.1 |  |  |  |
| CC1=C(C)C(=O)c2c(O)c(Cl)cc(O)c2C1=O [Compound 22] |  | 2 | 39 |  |
| CCCCCCc1cc(O)c2c(c1)C(=O)C=C(C1=CC(=O)c3cc(CCCCCC)cc(O)c3C1=O)C2=O [Compound 30] |  | 6 | 12 |  |
| CCc1cc(O)c2c(c1)C(=O)C=C(C1=CC(=O)c3cc(CC)cc(O)c3C1=O)C2=O [Compound 26] |  | 43 | 64 |  |
| O=C1C=C(Br)C(=O)c2c(O)ccc(O)c21 [Compound 24] |  | 1 |  | IC50 values of inhibition of CK1δ (CK1δ; [4]): could not be determined; IC50 (CK1δ; [2]): > 25 µM; % Inhibition CK1ε (CK1ε; 10 µM): 96%; IC50 (CK1ε): 2.1 µM |
| Cc1cc(O)c2c(c1O)C(=O)C=CC2=O [Compound 15] | 6.3 | 31 | 58 |  |
| O=C1c2ccccc2C(=O)c2c(NCCO)cccc21 [Compound 6] | 21.2 |  |  |  |
| CC(C)(C)OC1CC(=O)CC2C(=O)c3cccc(O)c3C(=O)C12 (stereo not drawn) [Compound 8] | 18.9 |  |  | inhibition of tau phosphorylation at Ser202 (in words) [1]: comparable inhibition potency; inhibition of tau phosphorylation of Ser202 [1]: 56% |
| O=C1C(CO)=C(CO)C(=O)c2c(O)ccc(O)c21 [Compound 11] | 27.2 |  |  |  |
| CC(O)C1=CC(=O)c2c(O)ccc(O)c2C1=O (stereo not drawn) [Compound 16] | 2.4 |  |  | inhibition of tau phosphorylation at Ser202 (in words) [1]: comparable inhibition potency |
| CC(C)Cc1cc(O)c2c(c1)C(=O)C=CC2=O [Compound 25] |  | 11 | 48 |  |
| O=C1C=C(c2ccccc2)C(=O)c2c(O)ccc(O)c21 [Compound 23] |  | 17 | 60 |  |
| O=C1C=CC(=O)c2c(O)c(Cl)cc(O)c21 [Compound 18] |  | 13 |  | IC50 values of inhibition of CK1δ (CK1δ; [4]): could not be determined; IC50 (CK1δ; [2]): > 25 µM; % Inhibition CK1ε (CK1ε; 10 µM): 90%; IC50 (CK1ε): 1.34 µM |
| CC(C)C(C)OC1CC(=O)CC2C(=O)c3c(O)ccc(O)c3C(=O)C12 (stereo not drawn) [Compound 9] | 5.8 |  |  | inhibition of tau phosphorylation at Ser202 (in words) [1]: comparable inhibition potency; inhibition of tau phosphorylation of Ser202 [1]: 55% |
| CC(=O)Oc1ccc(O)c2c1C(=O)C=CC2=O [Compound 3] | 0.2 |  |  |  |
| O=C1C2=C(C(=O)c3c(O)ccc(O)c31)C(O)C(O)C(O)C2 (stereo not drawn) [Compound 2] |  |  |  | % Inhibition at 10 μM, CSNK1D (CSNK1D (CK1δ)): 70%; % Inhibition at 10 μM, PIM1 (PIM1): 66%; % Inhibition at 10 μM, PIM3 (PIM3): 64%; inhibition of tau phosphorylation at Ser202 (in words) [1]: did not measure up to them |
| CCCCCc1cc(O)c2c(c1)C(=O)C=C(C1=CC(=O)c3cc(CCCCC)cc(O)c3C1=O)C2=O [Compound 27] |  | 9 | 13 |  |
| CC(C)CCc1cc(O)c2c(c1)C(=O)C=C(C1=CC(=O)c3cc(CCC(C)C)cc(O)c3C1=O)C2=O [Compound 28] |  | 9 | 13 |  |
| O=C1C=C(CBr)C(=O)c2c(O)ccc(O)c21 [Compound 12] | 0.7 |  |  | % Inhibition CK1δ (CK1δ; 10 µM): 94%; IC50 (CK1δ; [2]): 0.72 µM; % Inhibition CK1ε (CK1ε; 10 µM): 101%; inhibition of tau phosphorylation at Ser202 (in words) [1]: comparable inhibition potency |
| COc1cc2cc3c(c(O)c2c(O)c1C=CC(C)C)C(=O)CC(C)(OC(C)=O)C3 (stereo not drawn) [Compound 4] | 16.1 |  |  |  |
| CC(C)Cc1cc(O)c2c(c1)C(=O)C=C(C1=CC(=O)c3cc(CC(C)C)cc(O)c3C1=O)C2=O [Compound 29] |  | 8 | 15 |  |
| CC(C)(C)OC1CC(O)CC2C(=O)c3c(O)ccc(O)c3C(=O)C12 (stereo not drawn) [Compound 10] | 10.1 |  |  |  |
| O=C1C(c2ccccc2)=C(c2ccccc2)C(=O)c2c(O)ccc(O)c21 [Compound 21] |  | 8 | 14 |  |
| COc1cccc2c1C(=O)c1c(O)ccc(O)c1C2=O [Compound 5] | 0.2 |  |  | inhibition of tau phosphorylation at Ser202 (in words) [1]: comparable inhibition potency; inhibition of tau phosphorylation of Ser202 [1]: approximately 43% |
| CNC(=O)c1ccc2c(c1N)C(=O)c1ccccc1C2=O [Compound 7] | 19.4 |  |  |  |
